Measurements published in ChEMBL document CHEMBL1140536, “Versatile templates for the development of novel kinase inhibitors: Discovery of novel CDK inhibitors” (Bioorg Med Chem Lett, 2007).

What was measured:
[1] = Inhibition of recombinant cyclin A/CDK2 expressed in Sf9 cells; parameters: species or system Homo sapiens
A2780 = test: Growth inhibition of A2780 cells after 24 hrs by thymidine incorporation assay; type: functional, cell-based; details: Homo sapiens, A2780, 24 h

Row | IC50 [1] | Structure (SMILES) | IC50 (A2780)
1 | 700 nM | Brc1cnc2c(NCc3ccncc3)cc(-c3ccccc3)cn12 | 
2 | 4500 nM | Brc1cnn2c(NCc3ccncc3)cc(-c3ccccc3)cc12 | 
3 | 500 nM | c1ccc(-c2cc(NCc3ccncc3)n3nccc3n2)cc1 | 

The next lines start with the molecule.

Row | Structure (SMILES) | IC50 [1] | IC50 (A2780)
4 | Fc1ccccc1-c1cn2ccnc2c(NCc2ccncc2)n1 | 800 nM | 
5 | Clc1cccc(-c2cc(NCc3ccncc3)n3nccc3n2)c1Cl | 500 nM | 
6 | Brc1cnc2c(NCc3ccncc3)nc(-c3ccccc3)cn12 | 440 nM | 2000 nM
